Source: BindingDB's records for doi:10.1021/acschembio.6b00782 (University of Michigan, 2017)

Assays:
[1] = biological target: T1, Paired box protein Pax-2 [1-81] (Human, UniProt Q02962); test: Biolayer Interferometry Binding Assay
T1 construct: 1-81
Description: (§1) After biotinylation, the protein was bound to saturation to the biosensor of an Octet RED Multichannel platform (ForteBio). All binding and equilibration was done in PBS with 0.1% DMSO. For binding to the compound, sensors were incubated for 300s in EG1 at the following concentrations: 0.5, 1, 2, 4, 8, 16, 31, 62, 125, and 250 μM. Disassociation was then measured for 350 s in PBS to determine affinity constants. Kd is calculated from Kon and Koff.

[2] = biological target: T1, Paired box protein Pax-2 [1-81]; test: Biolayer Interferometry Binding Assay; remark: listed apart in the source
Description: as §1, with “steady state analysis.” for “Kon and Koff.”

T1 sequence (Q02962 1-81): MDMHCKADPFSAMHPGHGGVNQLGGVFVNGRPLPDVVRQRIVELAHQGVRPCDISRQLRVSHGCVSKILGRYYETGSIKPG

Kd [1]: 1350 nM
Kd [2]: 1500 nM
Compound: COc1ccccc1C(=O)Nc1ccc(C(=O)Nc2ccccc2C(=O)O)cc1 [EG1]
